Assay results as given in publication PMC5360416 (Journal of pharmaceutical sciences, 2014).
Where a name gives a salt, the structure may show the parent alone.

Legend:
[1] = stated without reference, cited from earlier work
[2] = system: MCT induced PAH rats; experiment: Acute hemodynamic efficacy in MCT induced PAH rats; format: in vivo, rat; conditions: 3 mg/kg
[3] = Pharmacokinetics in adult male SD rats; format: in vivo, rat; conditions: 6 mg/kg; for AUC(0-inf) / Cmax: male, Sprague-Dawley, rat, plasma
[4] = system: rat PASM cells
[5] = Short-term lung toxicity, bronchoalveolar lavage; format: in vivo, rat; conditions: 12 hrs
[6] = 0.1% SDS, compared with CAR-micelles and plain drug

Compound	solubility in methanol ([1]; methanol)	solubility in water ([1]; water) [mg/mL]	reduction in MPAP, IT versus IV ([2]; plain fasudil IT)	reduction in MSAP ([2]; plain fasudil IV and IT)	time after which no plasma concentration was shown ([3]; IT) [h]	time after which no plasma concentration was shown ([3]; IV) [h]	AUC(0-inf) ([3]; inhaled or intranasal) [ng·h/mL]	Cmax ([3]; inhaled or intranasal) [ng/mL]	AUC(0-inf) ([3]; iv) [ng·h/mL]	Cmax ([3]; iv) [ng/mL]	cell viability [4] [%]	ALP level in BAL fluid [5, 6]	LDH level in BAL fluid [5, 6]	wet lung weight compared to saline treated rats ([5]; intratracheal, CAR-micelles equivalent to 6 mg/kg fasudil, SDS 0.1%)
O=S(=O)(c1cccc2cnccc12)N1CCCNCC1 [Fasudil, Fasudil hydrochloride]	moderately soluble	~200	more pronounced reduction in MPAP than IV fasudil	significant reduction	6	2	21700 ± 4080	1450 ± 580	27600 ± 3910	3780 ± 230				
CCCCCCCCCCCCOS(=O)(=O)[O-].[Na+] [SDS, sodium dodecyl sulfate]											~16	elevated levels	elevated levels	two-fold
